According to patent US8680108B2, “Substituted fused aryl and heteroaryl derivatives as PI3K inhibitors” (Incyte Corporation, priority 2009, dated 2014):
Like-named read-outs stand apart in the source and are kept apart here.

Experiments:
[1] = tested on: Pfeiffer cell line (diffuse large B cell lymphoma); assay: Pfeiffer cell proliferation assay; format: cell-based
Description: Pfeiffer cell line (diffuse large B cell lymphoma) was purchased from ATCC (Manassas, Va.) and maintained in the culture medium recommended (RPMI and 10% FBS). To measure the anti-proliferation activity of the compounds, the Pfeiffer cells were plated with the culture medium (2×10^3 cells/well/per 200 μl) into 96-well ultra-low binding plates (Corning, Corning, N.Y.), in the presence or absence of a concentration range of test compounds. […]

[2] = biological target: T1, PI3Kδ (p110δ/p85α) (Homo sapiens, UniProt O00329); assay: PI3Kδ scintillation proximity assay; format: biochemical
T1 construct: purchased Millipore (Bedford, Mass.)
Procedure, shortened: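 IC50 was fitted to percent control activity against log concentration, from scintillation proximity counting of 33P-labelled lipid product captured on WGA beads after an EDTA quench. Reactions ran 210 minutes at room temperature: 4 nM PI3Kδ (p110δ/p85α), 20 μM PIP2, 20 μM ATP, pH 6.7 MOPS buffer, 0.5% DMSO.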

[3] = Homo sapiens, Pfeiffer, first of two isolated isomers
[4] = Homo sapiens, Pfeiffer, second of two isolated isomers

T1 sequence (O00329 whole entry): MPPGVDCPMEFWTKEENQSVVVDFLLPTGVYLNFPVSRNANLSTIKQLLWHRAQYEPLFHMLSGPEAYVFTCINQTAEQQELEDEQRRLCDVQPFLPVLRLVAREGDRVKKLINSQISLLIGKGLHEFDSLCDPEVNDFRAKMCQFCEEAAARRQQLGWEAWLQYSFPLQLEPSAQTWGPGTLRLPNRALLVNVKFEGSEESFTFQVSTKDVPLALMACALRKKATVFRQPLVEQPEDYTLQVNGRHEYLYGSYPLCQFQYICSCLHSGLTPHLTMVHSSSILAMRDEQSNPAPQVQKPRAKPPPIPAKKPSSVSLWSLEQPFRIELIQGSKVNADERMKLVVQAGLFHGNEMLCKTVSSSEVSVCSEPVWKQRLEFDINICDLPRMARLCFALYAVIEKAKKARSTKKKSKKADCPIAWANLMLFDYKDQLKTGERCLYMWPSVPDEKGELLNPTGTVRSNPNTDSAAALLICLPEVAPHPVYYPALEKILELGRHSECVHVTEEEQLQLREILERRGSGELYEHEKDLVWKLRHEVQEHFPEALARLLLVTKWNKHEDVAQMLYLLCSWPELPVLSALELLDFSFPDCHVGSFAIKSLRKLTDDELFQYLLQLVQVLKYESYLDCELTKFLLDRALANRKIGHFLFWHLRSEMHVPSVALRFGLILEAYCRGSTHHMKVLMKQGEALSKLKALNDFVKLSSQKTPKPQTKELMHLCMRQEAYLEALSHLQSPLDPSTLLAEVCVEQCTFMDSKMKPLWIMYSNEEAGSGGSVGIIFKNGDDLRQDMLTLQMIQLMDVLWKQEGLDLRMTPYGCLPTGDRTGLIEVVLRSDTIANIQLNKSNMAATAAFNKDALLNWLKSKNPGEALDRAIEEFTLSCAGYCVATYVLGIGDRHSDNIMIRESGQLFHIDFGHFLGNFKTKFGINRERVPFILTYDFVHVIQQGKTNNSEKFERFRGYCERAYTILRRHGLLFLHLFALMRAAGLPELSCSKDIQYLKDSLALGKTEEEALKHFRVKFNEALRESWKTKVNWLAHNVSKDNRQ
T1 sequence (P27986 whole entry partner): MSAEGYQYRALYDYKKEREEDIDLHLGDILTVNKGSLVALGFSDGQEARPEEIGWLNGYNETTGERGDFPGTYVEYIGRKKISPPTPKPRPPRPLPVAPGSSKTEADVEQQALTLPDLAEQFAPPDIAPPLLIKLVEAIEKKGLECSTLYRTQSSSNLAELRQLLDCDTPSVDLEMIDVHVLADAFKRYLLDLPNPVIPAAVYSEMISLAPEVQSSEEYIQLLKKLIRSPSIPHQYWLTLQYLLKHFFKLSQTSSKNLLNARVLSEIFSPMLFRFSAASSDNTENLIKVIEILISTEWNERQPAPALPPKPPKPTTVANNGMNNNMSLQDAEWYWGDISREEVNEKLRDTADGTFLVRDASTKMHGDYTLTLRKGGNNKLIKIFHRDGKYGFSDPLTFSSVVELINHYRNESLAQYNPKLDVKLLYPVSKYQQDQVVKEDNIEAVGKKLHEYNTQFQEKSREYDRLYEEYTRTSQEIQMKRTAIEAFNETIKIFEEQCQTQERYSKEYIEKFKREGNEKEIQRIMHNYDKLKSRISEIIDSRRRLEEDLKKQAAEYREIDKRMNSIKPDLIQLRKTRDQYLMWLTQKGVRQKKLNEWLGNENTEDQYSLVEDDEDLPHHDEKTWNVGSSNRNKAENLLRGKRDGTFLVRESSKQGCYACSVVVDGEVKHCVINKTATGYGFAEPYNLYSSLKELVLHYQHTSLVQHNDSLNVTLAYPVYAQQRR

IC50 [1, 3]	IC50 [1, 4]	IC50 ([2]; separated isomer, 1st peak)	IC50 ([2]; separated isomer, 2nd peak)	IC50 ([1]; [3H]-thymidine incorporation)	IC50 [2]	Structure (SMILES)
> 1000 nM	> 1000 nM	100 to 250 nM	100 to 250 nM	–	–	CC(Nc1ncnc2[nH]cnc12)c1cc(Cl)c2cccnc2c1N1CCCC(CO)C1 (centres unmarked) [Example 63, (1-{5-Chloro-7-[1-(9H-purin-6-ylamino)ethyl]quinolin-8-yl]piperidin-3-yl)methanol tris(trifluoroacetate)]
–	250 to 500 nM	> 1000 nM	100 to 250 nM	–	–	CC(Nc1ncnc2[nH]cnc12)c1cc(F)c2cccnc2c1N1CC[C@@H](O)C1 (stereo partly drawn) [Example 53, (3R)-1-{5-fluoro-7-[1-(9H-purin-6-ylamino)ethyl]quinolin-8-yl}pyrrolidin-3-ol]
–	–	–	–	500 to 1000 nM	500 to 1000 nM	Cc1cc(C(C)Nc2ncnc3[nH]cnc23)c(-c2cccc(F)c2)c2nnccc12 (single isomer, unassigned) [Example 37, N-{1-[8-(3-fluorophenyl)-5-methylcinnolin-7-yl]ethyl}-9H-purin-6-amine]
> 1000 nM	> 1000 nM	< 50 nM	> 1000 nM	–	–	CC(Nc1ncnc2[nH]cnc12)c1cc(Cl)c2cccnc2c1N1CCC[C@H](O)C1 (stereo partly drawn) [Example 48, (3S)-1-{5-Chloro-7-[1-(9H-purin-6-ylamino)ethyl]quinolin-8-yl}piperidin-3-ol]
250 to 500 nM	100 to 250 nM	50 to 100 nM	< 50 nM	–	–	COC(=O)N[C@H]1CCN(c2c(C(C)Nc3ncnc4[nH]cnc34)cc(Cl)c3cccnc23)C1 (stereo partly drawn) [Example 79, Methyl((3S)-1-{5-Chloro-7-[1-(9H-purin-6-ylamino)ethyl]quinolin-8-yl}pyrrolidin-3-yl)carbamate tris(trifluoroacetate)]
–	250 to 500 nM	–	–	–	> 1000 nM	CC(Nc1ncnc2[nH]cnc12)c1cc(Cl)c2cccnc2c1N1CCC(Oc2ccccc2)CC1 (centres unmarked) [Example 75, N-{1-[5-Chloro-8-(4-phenoxypiperidin-1yl)quinolin-7-yl]ethyl}-9H-purin-6-amine bis(trifluoroacetate)]
100 to 250 nM	100 to 250 nM	100 to 250 nM	250 to 500 nM	–	–	COC1CCCN(c2c(C(C)Nc3ncnc4[nH]cnc34)cc(Cl)c3cccnc23)C1 (centres unmarked) [Example 67, N-{1-[5-Chloro-8-(3-methoxypiperidin-1-yl)quinolin-7-yl]ethyl}-9H-purin-6-amine tris(trifluoroacetate)]
